Data reported in ChEMBL document CHEMBL1201862, “PubChem BioAssay data set” (2004).
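Cultured in 96-well plates, cells were exposed to test compound for 48 hours across five concentrations. GI50: concentration for 50% inhibition of growth.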 Active and inactive are the calls of the source. Cut-off read from the data, not from the text of the source: active = GI50 up to about 1.1 µM and inactive = higher.

Legend:
Test in all cases: NCI tumour cell line growth inhibition, 48 h
UACC-257 = system: UACC-257
UO-31 = system: UO-31
DMS-114 = system: DMS-114
CCRF-CEM = system: CCRF-CEM
HCT-15 = system: HCT-15
UACC-62 = system: UACC-62
K562 = system: K562
SF-268 = system: SF-268
COLO 205 = system: COLO 205
786-0 = system: 786-0
ACHN = system: ACHN
KM12 = system: KM12
OVCAR-3 = system: OVCAR-3
DMS-273 = system: DMS-273
SNB-75 = system: SNB-75
KM-20L2 = system: KM-20L2
OVCAR-8 = system: OVCAR-8
LOX IMVI = system: LOX IMVI
Malme-3M = system: Malme-3M
NCI-H226 = system: NCI-H226
HOP-18 = system: HOP-18
SK-MEL-28 = system: SK-MEL-28
NCI-H23 = system: NCI-H23
NCI-H460 = system: NCI-H460
HCT-116 = system: HCT-116
HOP-62 = system: HOP-62
SW-620 = system: SW-620
TK-10 = system: TK-10
M14 = system: M14
IGROV-1 = system: IGROV-1
RXF 393 = system: RXF 393
LXFL 529 = system: LXFL 529
M19-MEL = system: M19-MEL
NCI-H522 = system: NCI-H522
SN12C = system: SN12C
SR = system: SR
OVCAR-4 = system: OVCAR-4
SK-OV-3 = system: SK-OV-3
HT-29 = system: HT-29
A498 = system: A498
U-251 = system: U-251
EKVX = system: EKVX
RPMI-8226 = system: RPMI-8226
MOLT-4 = system: MOLT-4
SNB-19 = system: SNB-19
SK-MEL-2 = system: SK-MEL-2
SK-MEL-5 = system: SK-MEL-5
HCC 2998 = system: HCC 2998
A549 = system: A549
DLD-1 = system: DLD-1
OVCAR-5 = system: OVCAR-5
SF-295 = system: SF-295
HL-60 = system: HL-60
CAKI-1 = system: CAKI-1
SF-539 = system: SF-539
T47D = system: T47D
MDA-N = system: MDA-N
MDA-MB-231 = system: MDA-MB-231
HOP-92 = system: HOP-92
BT-549 = system: BT-549
Hs-578T = system: Hs-578T
DU-145 = system: DU-145
NCI/ADR-RES = system: NCI/ADR-RES
MCF7 = system: MCF7
PC-3 = system: PC-3
MDA-MB-435 = system: MDA-MB-435

In the case of `COC(=O)C(=O)C1(CCC(C)=O)c2ccccc2-c2ccccc21`, the GI50 (UACC-257) is reported as 55.2 µM (inactive), the GI50 (UO-31) is reported as 41 µM (inactive) and the GI50 (DMS-114) is reported as 65.5 µM (inactive). For the same compound, the GI50 (CCRF-CEM) was 63.2 µM (inactive), the GI50 (HCT-15) was 56.4 µM and the GI50 (UACC-62) was 97.7 µM (inactive). For the same compound, the GI50 (K562) was 44.5 µM (inactive), the GI50 (SF-268) was > 100 µM (inactive) and the GI50 (COLO 205) was 76.9 µM (inactive). The GI50 (786-0) was 85.1 µM (inactive), the GI50 (ACHN) was > 100 µM (inactive) and the GI50 (KM12) was 74.3 µM (inactive). For the same compound, the GI50 (OVCAR-3) was 44.6 µM (inactive), the GI50 (DMS-273) was 43.6 µM (inactive) and the GI50 (SNB-75) was 93.3 µM (inactive). The GI50 (KM-20L2) was > 100 µM (inactive), the GI50 (OVCAR-8) was 99.8 µM (inactive) and the GI50 (LOX IMVI) was 62.1 µM (inactive). The GI50 (Malme-3M) was 49.7 µM (inactive), the GI50 (NCI-H226) was > 100 µM (inactive) and the GI50 (HOP-18) was 71.6 µM (inactive). For the same compound, the GI50 (SK-MEL-28) was 94 µM (inactive), the GI50 (NCI-H23) was 63.2 µM (inactive) and the GI50 (NCI-H460) was 59.8 µM (inactive). The GI50 (HCT-116) was 43.6 µM (inactive), the GI50 (HOP-62) was 68.7 µM (inactive) and the GI50 (SW-620) was > 100 µM (inactive). The GI50 (TK-10) was 71.3 µM (inactive), the GI50 (M14) was 41 µM (inactive) and the GI50 (IGROV-1) was > 100 µM (inactive). The GI50 (RXF 393) was 57.4 µM (inactive), the GI50 (LXFL 529) was 47.1 µM (inactive) and the GI50 (M19-MEL) was > 100 µM (inactive). The GI50 (NCI-H522) was 69.2 µM (inactive), the GI50 (SN12C) was > 100 µM (inactive) and the GI50 (SR) was 41 µM (inactive). For the same compound, the GI50 (OVCAR-4) was > 100 µM (inactive), the GI50 (SK-OV-3) was > 100 µM (inactive) and the GI50 (HT-29) was 79.8 µM (inactive). The GI50 (A498) was 88.5 µM (inactive), the GI50 (U-251) was 68.5 µM (inactive) and the GI50 (EKVX) was > 100 µM (inactive). For the same compound, the GI50 (RPMI-8226) was 36.4 µM (inactive), the GI50 (MOLT-4) was 33.4 µM (inactive) and the GI50 (SNB-19) was > 100 µM (inactive). The GI50 (SK-MEL-2) was 83.4 µM (inactive), the GI50 (SK-MEL-5) was 35.7 µM (inactive) and the GI50 (HCC 2998) was 72.3 µM (inactive). For the same compound, the GI50 (A549) was 87.5 µM (inactive), the GI50 (DLD-1) was 66.2 µM (inactive) and the GI50 (OVCAR-5) was > 100 µM (inactive). The GI50 (SF-295) was > 100 µM (inactive), the GI50 (HL-60) was 35.5 µM (inactive) and the GI50 (CAKI-1) was 35.2 µM (inactive).
For `C[C@@H](CC(=O)OCc1ccccc1)OC1OC(COC(=O)C(C)(C)C)C(OC(=O)C(C)(C)C)C(OC(=O)C(C)(C)C)C1OC(=O)C(C)(C)C` (stereo partly drawn), the GI50 (UACC-257) was > 100 µM (inactive), the GI50 (UO-31) was > 100 µM (inactive) and the GI50 (CCRF-CEM) was > 100 µM (inactive). For the same compound, the GI50 (HCT-15) was over 100 µM, the GI50 (UACC-62) was > 100 µM (inactive) and the GI50 (K562) was > 100 µM (inactive). The GI50 (SF-268) was > 100 µM (inactive), the GI50 (COLO 205) was > 100 µM (inactive) and the GI50 (786-0) was > 100 µM (inactive). For the same compound, the GI50 (SF-539) was > 100 µM (inactive), the GI50 (ACHN) was > 100 µM (inactive) and the GI50 (KM12) was > 100 µM (inactive). The GI50 (T47D) was > 100 µM (inactive), the GI50 (OVCAR-3) was > 100 µM (inactive) and the GI50 (MDA-N) was 36 µM (inactive). The GI50 (MDA-MB-231) was > 100 µM (inactive), the GI50 (SNB-75) was > 100 µM (inactive) and the GI50 (HOP-92) was > 100 µM (inactive). For the same compound, the GI50 (OVCAR-8) was > 100 µM (inactive), the GI50 (LOX IMVI) was > 100 µM (inactive) and the GI50 (Malme-3M) was > 100 µM (inactive). For the same compound, the GI50 (BT-549) was > 100 µM (inactive), the GI50 (NCI-H226) was > 100 µM (inactive) and the GI50 (SK-MEL-28) was > 100 µM (inactive). For the same compound, the GI50 (NCI-H23) was > 100 µM (inactive), the GI50 (Hs-578T) was > 100 µM (inactive) and the GI50 (NCI-H460) was > 100 µM (inactive). For the same compound, the GI50 (HCT-116) was > 100 µM (inactive), the GI50 (HOP-62) was > 100 µM (inactive) and the GI50 (SW-620) was > 100 µM (inactive). The GI50 (TK-10) was > 100 µM (inactive), the GI50 (M14) was > 100 µM (inactive) and the GI50 (IGROV-1) was > 100 µM (inactive). The GI50 (RXF 393) was > 100 µM (inactive), the GI50 (DU-145) was > 100 µM (inactive) and the GI50 (NCI-H522) was > 100 µM (inactive). The GI50 (NCI/ADR-RES) was > 100 µM (inactive), the GI50 (MCF7) was > 100 µM (inactive) and the GI50 (SN12C) was > 100 µM (inactive). For the same compound, the GI50 (SR) was > 100 µM (inactive), the GI50 (OVCAR-4) was > 100 µM (inactive) and the GI50 (SK-OV-3) was > 100 µM (inactive). The GI50 (HT-29) was > 100 µM (inactive), the GI50 (A498) was > 100 µM (inactive) and the GI50 (U-251) was > 100 µM (inactive). The GI50 (EKVX) was > 100 µM (inactive), the GI50 (RPMI-8226) was > 100 µM (inactive) and the GI50 (MOLT-4) was 94.4 µM (inactive). For the same compound, the GI50 (SNB-19) was > 100 µM (inactive), the GI50 (SK-MEL-2) was > 100 µM (inactive) and the GI50 (SK-MEL-5) was 5.28 µM (inactive). For the same compound, the GI50 (HCC 2998) was > 100 µM (inactive), the GI50 (A549) was > 100 µM (inactive) and the GI50 (OVCAR-5) was > 100 µM (inactive). The GI50 (PC-3) was > 100 µM (inactive), the GI50 (MDA-MB-435) was > 100 µM (inactive) and the GI50 (SF-295) was > 100 µM (inactive). For the same compound, the GI50 (HL-60) was > 100 µM (inactive) and the GI50 (CAKI-1) was > 100 µM (inactive).
